# According to US8785468B2, “Phenylalanine amide derivatives useful for treating insulin-related diseases and conditions” (Amgen Inc., priority 2009, dated 2014):
# Where a name gives a salt, the structure may show the parent alone.
# Molecular target: T1, human receptor found in pancreatic islet cells (Homo sapiens, UniProt Q7Z601)
# T1 sequence (Q7Z601 1-462): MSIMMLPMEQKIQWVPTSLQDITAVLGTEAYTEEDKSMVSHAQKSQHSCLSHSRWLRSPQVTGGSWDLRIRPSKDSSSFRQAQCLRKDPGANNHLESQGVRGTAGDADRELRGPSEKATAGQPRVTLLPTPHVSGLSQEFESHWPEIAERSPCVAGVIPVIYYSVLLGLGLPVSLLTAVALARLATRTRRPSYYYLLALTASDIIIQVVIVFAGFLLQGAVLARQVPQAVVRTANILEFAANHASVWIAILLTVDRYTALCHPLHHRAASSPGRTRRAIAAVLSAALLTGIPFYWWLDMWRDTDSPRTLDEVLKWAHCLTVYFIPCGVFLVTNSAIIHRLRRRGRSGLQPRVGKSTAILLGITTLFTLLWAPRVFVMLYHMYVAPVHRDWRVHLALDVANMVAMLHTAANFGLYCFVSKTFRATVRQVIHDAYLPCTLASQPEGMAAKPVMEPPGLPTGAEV
# Assay: Activation of intracellular IP3 signaling in transfected cells (Activation Assay)
# Assay type: cell-based
# Details: calculated from IP3 concentration measurements in cells transfected with the human receptor
# Procedure: Table 12 provides exemplary compounds that were prepared and assessed, following protocols known to those of skilled in the art, for activation of intracellular inositol trisphosphate (IP3) signaling pathways that lead to elevation of intracellular calcium concentration. EC50 values provided in Table 12 were calculated from IP3 concentration measurements in cells transfected with a human receptor found in pancreatic islet cells, inter alia.
row,EC50,Structure (SMILES)
1,< 0.05 µM,"O=C(Nc1cc(-c2ccncc2)ccc1O)[C@H](Cc1ccccc1)NCc1cscn1 [Example 13, (S)—N-(2-hydroxy-5-(pyridin-4-yl)phenyl)-3-phenyl-2-(thiazol-4-ylmethylamino)propanamide]"
2,0.05 to 0.1 µM,"Cc1cc(-c2cc(NC(=O)[C@H](Cc3ccccc3)NCc3ccccn3)cc(NS(C)(=O)=O)c2)ccn1 [Example 51.2, (2S)—N-(3-(2-Methylpyridin-4-yl)-5-(methylsulfonamido)phenyl)-3-phenyl-2-(pyridin-2-ylmethylamino)propanamide]"
3,0.05 to 0.1 µM,"COc1ccc(NC(=O)[C@H](Cc2ccccc2)NCc2cscn2)cc1-c1ccncc1 [Example 37, (S)—N-(4-Methoxy-3-(pyridin-4-yl)phenyl)-3-phenyl-2-(thiazol-4-ylmethylamino)propanamide]"
4,0.1 to 1 µM,"Nc1nc(CN[C@@H](Cc2ccccc2)C(=O)Nc2nnc(-c3ccncc3)s2)cs1 [Example 1.3, (S)-2-((2-aminothiazol-4-yl)methylamino)-3-phenyl-N-(5-(pyridin-4-yl)-1,3,4-thiadiazol-2-yl)propanamide]"
5,0.1 to 1 µM,"O=C(Nc1cccc(-c2ccncc2)c1)[C@H](Cc1ccccc1)NCc1cncs1 [Example 34.17, (S)-3-Phenyl-N-(3-(pyridin-4-yl)phenyl)-2-(thiazol-5-ylmethylamino)propanamide]"
6,0.05 to 0.1 µM,"COC(=O)c1cc(-c2ccncc2)cc2c1CCN2C(=O)[C@H](Cc1ccc(F)cc1)NCc1cc[nH]n1 [Example 54.6, (S)-Methyl 1-(2-((1H-pyrazol-3-yl)methylamino)-3-(4-fluorophenyl)propanoyl)-6-(pyridin-4-yl)indoline-4-carboxylate]"
7,0.1 to 1 µM,"O=C(Nc1nccc(-c2ccncc2)n1)[C@H](Cc1ccccc1)NCc1cscn1 [Example 10, (S)-3-phenyl-N-(4-(pyridin-4-yl)pyrimidin-2-yl)-2-(thiazol-4-ylmethylamino)propanamide]"
8,1 to 10 µM,"O=C(Nc1cccc(-c2ccncc2)c1)[C@H](Cc1ccccc1)NCc1cnco1 [Example 34.15, (S)-2-(Oxazol-5-ylmethylamino)-3-phenyl-N-(3-(pyridin-4-yl)phenyl)propanamide]"
9,0.05 to 0.1 µM,"COC(=O)c1cc(-c2ccncc2)cc2c1CCN2C(=O)[C@H](Cc1ccccc1)NCc1cc[nH]n1 [Example 54.4, (S)-Methyl 1-(2-((1H-pyrazol-3-yl)methylamino)-3-phenylpropanoyl)-6-(pyridin-4-yl)indoline-4-carboxylate]"
10,0.1 to 1 µM,"COc1ncc(-c2ccnc(C)c2)cc1NC(=O)[C@H](Cc1ccccc1)NCc1cscn1 [Example 41.5, (2S)—N-(2-Methoxy-5-(2-methylpyridin-4-yl)pyridin-3-yl)-3-phenyl-2-(thiazol-4-ylmethylamino)propanamide TFA salt]"
11,0.05 to 0.1 µM,"NC(=O)CNC(=O)c1cc(-c2ccncc2)cc2c1CCN2C(=O)[C@H](Cc1ccccc1)NCc1cscn1 [Example 71, (S)—N-(2-Amino-2-oxoethyl)-1-(3-phenyl-2-(thiazol-4-ylmethylamino)propanoyl)-6-(pyridin-4-yl)indoline-4-carboxamide]"
12,0.05 to 0.1 µM,"O=C(Nc1cc(-c2ccncc2)n[nH]1)[C@H](Cc1ccccc1)NCc1cscn1 [Example 7, (S)-3-Phenyl-N-(3-(pyridin-4-yl)-1H-pyrazol-5-yl)-2-(thiazol-4-ylmethylamino)propanamide]"
13,1 to 10 µM,"O=C([C@H](Cc1ccccc1)NCc1cscn1)N1CCc2ccc(-c3cncnc3)cc21 [Example 84, (S)-3-Phenyl-1-(6-(pyrimidin-5-yl)indolin-1-yl)-2-(thiazol-4-ylmethylamino)propan-1-one]"
14,0.1 to 1 µM,"COC(=O)CNC(=O)c1cc(-c2ccncc2)cc2c1CCN2C(=O)[C@H](Cc1ccccc1)NCc1cscn1 [Example 77, (S)-Methyl 2-(1-(3-phenyl-2-(thiazol-4-ylmethylamino)propanoyl)-6-(pyridin-4-yl)indoline-4-carboxamido)acetate]"
15,< 0.05 µM,"Cc1cc(-c2cc(NC(=O)[C@H](Cc3ccc(F)cc3)NCc3cscn3)[nH]n2)ccn1 [Example 21.1, (2S)-3-(4-Fluorophenyl)-N-(3-(2-methylpyridin-4-yl)-1H-pyrazol-5-yl)-2-(thiazol-4-ylmethylamino)propanamide dihydrochloride]"
16,0.1 to 1 µM,"CC(C)(C)OC(=O)c1cc(NC(=O)[C@H](Cc2ccccc2)NC2(c3ccccn3)CC2)cc(-c2ccncc2)c1 [Example 73, (S)— tert-Butyl 3-(3-phenyl-2-(1-(pyridin-2-yl)cyclopropylamino)propanamido)-5-(pyridin-4-yl)benzoate]"
17,1 to 10 µM,"CC(C)N[C@@H](Cc1ccccc1)C(=O)Nc1cccc(-c2ccncc2)c1 [Example 34.13, (S)-2-(Isopropylamino)-3-phenyl-N-(3-(pyridin-4-yl)phenyl)propanamide]"

row,EC50,Structure (SMILES)
1,0.05 to 0.1 µM,"O=C([C@H](Cc1ccccc1)NCc1cscn1)N1CCc2c(-c3n[nH]c(=O)o3)cc(-c3ccncc3)cc21 [Example 57, (S)-5-(1-(3-Phenyl-2-(thiazol-4-ylmethylamino)propanoyl)-6-(pyridin-4-yl)indolin-4-yl)-1,3,4-oxadiazol-2(3H)-oneTFA salt]"
2,0.1 to 1 µM,"NC(=O)c1cc(-c2ccncc2)cc2c1CCN2C(=O)[C@H](Cc1ccccc1)NCc1cscn1 [Example 60, (S)-1-(3-Phenyl-2-(thiazol-4-ylmethylamino)propanoyl)-6-(pyridin-4-yl)indoline-4-carboxamide]"
3,< 0.05 µM,"CCn1nc(-c2ccnc(NC)c2)cc1NC(=O)[C@H](Cc1ccc(F)cc1)NCc1cscn1 [Example 31.1, (2S)—N-(1-Ethyl-3-(2-(methylamino)pyridin-4-yl)-1H-pyrazol-5-yl)-3-(4-fluorophenyl)-2-(thiazol-4-ylmethylamino)propanamide]"
4,0.05 to 0.1 µM,"COc1ncc(-c2ccncc2)cc1NC(=O)[C@H](Cc1ccccc1)NC1(c2csc(C)n2)CC1 [Example 35.3, (S)—N-(2-Methoxy-5-(pyridin-4-yl)pyridin-3-yl)-2-(1-(2-methylthiazol-4-yl)cyclopropylamino)-3-phenylpropanamide]"
5,< 0.05 µM,"Cc1cc(-c2cc(NC(=O)[C@H](Cc3ccc(F)cc3)NCc3cscn3)n(C)n2)ccn1 [Example 16.1, (2S)-3-(4-Fluorophenyl)-N-(1-methyl-3-(2-methylpyridin-4-yl)-1H-pyrazol-5-yl)-2-(thiazol-4-ylmethylamino)propanamide]"
6,0.1 to 1 µM,"COc1ncc(-c2ccn[nH]2)cc1NC(=O)[C@H](Cc1ccccc1)NC1(c2ccccn2)CC1 [Example 14.1, (2S)—N-(2-methoxy-5-(1H-pyrazol-5-yl)pyridin-3-yl)-3-phenyl-2-(1-(pyridin-2-yl)cyclopropylamino)propanamide]"
7,0.1 to 1 µM,"CN(C)CCNC(=O)c1cc(NC(=O)[C@H](Cc2ccccc2)NCc2cscn2)cc(-c2ccncc2)c1 [Example 74, (S)—N-(2-(dimethylamino)ethyl)-3-(3-phenyl-2-(thiazol-4-ylmethylamino)propanamido)-5-(pyridin-4-yl)benzamide bis trifluoroacetate salt]"
8,0.05 to 0.1 µM,CNc1cc(-c2cc(NC(=O)[C@H](Cc3ccc(F)cc3)NCc3cscn3)n(C(C)C)n2)ccn1 [Example 43.2]
9,1 to 10 µM,"CCn1nc(-c2ccncc2)cc1NC(=O)[C@H](Cc1ccccc1)N[C@H](C)C(=O)O [Example 20.3, (R)-2-((S)-1-(1-Ethyl-3-(pyridin-4-yl)-1H-pyrazol-5-ylamino)-1-oxo-3-phenylpropan-2-ylamino)propanoic acid]"
10,0.1 to 1 µM,"O=C(Nc1cccc(-c2ccncc2)c1)[C@H](Cc1ccccc1)NCc1nccs1 [Example 34.16, (S)-3-Phenyl-N-(3-(pyridin-4-yl)phenyl)-2-(thiazol-2-ylmethylamino)propanamide]"
11,0.05 to 0.1 µM,"Cc1cc(-c2ccc3c(c2)N(C(=O)[C@H](Cc2ccccc2)NCc2cscn2)CC3)ccn1 [Example 56, (2S)-1-(6-(2-Methylpyridin-4-yl)indolin-1-yl)-3-phenyl-2-(thiazol-4-ylmethylamino)propan-1-one]"
12,0.05 to 0.1 µM,"CNc1cc(-c2cc(NC(=O)[C@H](Cc3ccc(F)cc3)NCc3cscn3)n(CCO)n2)ccn1 [Example 30, (2S)-3-(4-Fluorophenyl)-N-(1-(2-hydroxyethyl)-3-(2-(methylamino)pyridin-4-yl)-1H-pyrazol-5-yl)-2-(thiazol-4-ylmethylamino)propanamide]"
13,0.1 to 1 µM,"CNc1cc(-c2cc(NC(=O)[C@@H](N)Cc3ccc(F)cc3)n(C(C)C)n2)ccn1 [Example 43.1, (2S)-2-Amino-3-(4-fluorophenyl)-N-(1-isopropyl-3-(2-(methylamino)pyridin-4-yl)-1H-pyrazol-5-yl)propanamide]"
14,1 to 10 µM,"O=C(O)c1cc(NC(=O)[C@H](Cc2ccccc2)NCc2cn[nH]c2)cc(-c2ccncc2)c1 [Example 45.4, (S)-3-(2-((1H-Pyrazol-4-yl)methylamino)-3-phenylpropanamido)-5-(pyridin-4-yl)benzoic acid]"
15,0.05 to 0.1 µM,"CNc1cc(-c2nnc(NC(=O)[C@H](Cc3ccc(F)cc3)NCc3cscn3)s2)ccn1 [Example 8.2, (2S)-3-(4-fluorophenyl)-N-(5-(2-(methylamine)pyridine-4-yl)-1,3,4-thiadiazol-2-yl)-2-(thiazol-4-ylmethylamino)propanamide]"
16,0.1 to 1 µM,COc1ncc(-c2cc[nH]n2)cc1NC(=O)[C@H](Cc1ccccc1)NC1(c2cscn2)CC1 [Example 14.2]
